5 compounds from PMC6992764 (Nature Communications, 2020) can be followed below.

In data set [1] the test system is LLC tumor cells. Briefly: LLC tumor cell growth (WST-1 assay). The format is cell-based. The conditions noted are these: 48 h.
Description: (§1) To evaluate the effects of compounds on cell growth, cells were incubated with inhibitors for 48 h, then WST-1 (Dojindo) was added to the culture for the final 30 min. An Envision instrument (PerkinElmer) was used to measure the absorbance of each well at 450 nm versus a 650-nm reference to detect the amount of formazan produced from WST-1 by mitochondrial dehydrogenases in viable cells.
For data set [2], the system named is B16 tumor cells. The experiment in a line: B16 tumor cell growth (WST-1 assay). Type of data set: cell-based. The settings on record: B16, 48 h.
Description: as §1
Data set [3] concerns LLC tumor cells.
The subject of data set [4] is B16 tumor cells.
The target in data set [5] is T1, Full-length FROUNT protein (Homo sapiens, UniProt Q9BW27).
T1 construct: made in house
T1 sequence (Q9BW27 1-656): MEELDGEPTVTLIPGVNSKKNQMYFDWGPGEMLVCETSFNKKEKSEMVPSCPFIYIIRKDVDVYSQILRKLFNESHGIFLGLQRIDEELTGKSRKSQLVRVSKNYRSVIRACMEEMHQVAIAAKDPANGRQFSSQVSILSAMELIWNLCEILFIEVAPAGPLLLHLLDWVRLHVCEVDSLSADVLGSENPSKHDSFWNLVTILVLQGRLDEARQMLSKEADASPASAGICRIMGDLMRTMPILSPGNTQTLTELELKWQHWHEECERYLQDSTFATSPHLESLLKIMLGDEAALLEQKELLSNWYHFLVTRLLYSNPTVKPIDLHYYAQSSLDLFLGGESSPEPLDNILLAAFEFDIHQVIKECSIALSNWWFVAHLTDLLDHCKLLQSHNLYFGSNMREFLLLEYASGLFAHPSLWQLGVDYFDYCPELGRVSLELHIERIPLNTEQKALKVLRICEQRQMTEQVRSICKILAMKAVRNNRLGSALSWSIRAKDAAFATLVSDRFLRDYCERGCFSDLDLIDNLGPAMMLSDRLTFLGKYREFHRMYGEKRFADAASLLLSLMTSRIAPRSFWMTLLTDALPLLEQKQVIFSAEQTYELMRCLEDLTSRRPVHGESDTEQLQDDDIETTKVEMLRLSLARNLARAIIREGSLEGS
Briefly: Surface plasmon resonance binding to FROUNT. The settings on record: SPR, concentration-dependent. Here is the method:
Interactions between FROUNT and library compounds were analyzed by surface plasmon resonance using a Biacore T100 (GE Healthcare). Full-length FROUNT protein or the FROUNT-binding region of CCR2 was immobilized on the CM5 sensor chip[56]. […] The resonance unit (RU) was measured during the binding and washing periods, and the binding kinetics were analyzed. Solvent correction with DMSO was performed using Biacore T100 evaluation software.
On the technique in general: Surface plasmon resonance follows binding to a sensor surface in real time, without labels.

The target in data set [6] is T2, CRBD of FROUNT (a.a. 532-656) bearing the L538E/P612S mutations (Homo sapiens, UniProt Q9BW27, L538E/P612S).
T2 construct: 50 µM CRBD of FROUNT (a.a. 532–656) bearing the L538E/P612S mutations or its mutant (C603S); made in house
T2 sequence (Q9BW27 532-656 L538E/P612S): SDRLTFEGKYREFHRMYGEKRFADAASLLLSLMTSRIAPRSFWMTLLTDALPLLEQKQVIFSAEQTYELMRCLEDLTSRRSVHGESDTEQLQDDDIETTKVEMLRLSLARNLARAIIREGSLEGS
Briefly: NMR titration (1H-15N HSQC) of CRBD of FROUNT. Type of data set: binding. The conditions noted are these: 12.5-50 µM compound, 50 µM CRBD. Here is the method: All ^1H–^15N heteronuclear single quantum correlation (HSQC) NMR spectra were measured at 25 °C on a Bruker 600-MHz AVANCE III spectrometer with a cryogenic probe. […] The assignments of the backbone ^1H^N and ^15N NMR signals of CRBD were performed, based on the previous paper. […] Combined chemical shift differences Δδ was calculated by Δδ = [(ΔδHN)^2 + (ΔδN/6.5)^2]^1/2, where ΔδHN and ΔδN are the chemical shift differences for ^1H^N and ^15N, respectively.

The next data set concerns the target T3, FROUNT-CCR2 interaction (Homo sapiens, UniProt Q9BW27).
T3 construct: GST-fused FROUNT (FNT-C)
T3 sequence (Q9BW27 500-656 limits assumed): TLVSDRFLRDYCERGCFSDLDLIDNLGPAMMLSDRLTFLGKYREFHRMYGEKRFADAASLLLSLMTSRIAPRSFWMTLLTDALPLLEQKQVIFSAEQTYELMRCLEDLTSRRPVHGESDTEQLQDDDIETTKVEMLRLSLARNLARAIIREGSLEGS
Briefly: HTRF FROUNT-CCR2 interaction assay. The format is binding. The conditions noted are these: HTRF.

Another data set deals with THP-1 cells. Briefly: Chemotaxis inhibition assay (chemoTX chamber, CCL2). Type of data set: cell-based, human. The conditions noted are these: towards CCL2, 90 min. Here is the method: Chemotaxis was measured in a 96-well chemoTX chemotaxis chamber with a polycarbonate filter (5-μm pore size) (Neuro probe). Human CCL2 (R&D Systems) was added to the lower chamber of the plate and the cells were added to the upper chamber. After incubation at 37 °C and 5% CO2 for 90 min, the filter was removed and the number of migrated cells in the lower chamber was counted using a cell counting kit F (Dojindo). Data are expressed as migration efficiency (percentage of the maximal migration).

The subject of the next data set is ALDH. Briefly: ALDH activity assay (ALDEFLUOR). The format is cell-based, human. The settings on record: THP-1 cells, 33 µM, 30 min. Here is the method: THP-1 cells were incubated for 30 min with medium containing DMSO or inhibitors at the concentration of 33 μM then washed and incubated with ALDEFLUOR reagent ([…] Technologies) in assay buffer according to the manufacturer’s instruction. Fluorescence derived from substrate metabolized by cellular ALDH were measured by Gallios cytometer.

The subject of another data set is peritoneal macrophages. Briefly: CCL2-induced pseudopodia protrusion of macrophages. The settings on record: 25 µM, 1 h pre-incubation. The format is cell-based, mice. Here is the method:
Peritoneal macrophages were isolated from mice, seeded in the 8-well glass-based dishes (Life Technologies) and incubated overnight at 37 °C to allow the cells to adhere. After serum starvation for 6 h, cells were stimulated with chemokine at a concentration of 100 ng mL^–1, then fixed with 4% paraformaldehyde (Wako) and permeabilized with 0.1% Triton X-100 (Wako) in PBS, followed by staining with phalloidin conjugated with Alexa Fluor 594 (Life Technologies). […] Tumor macrophages were isolated from collagenase digestion of tumor tissue as attached cells by washing non-adherent cells away and further culturing them in DMEM containing 10 nM M-CSF (BD Biosciences) and 10% serum. After co-culture with LLC tumor cells, confocal images were obtained using an SP5 confocal microscope (Leica Microsystems). Cells were classified as lamellipodial/round-shaped or filopodial based on their morphology and the ratio of each type in the visual field determined.

Data set [7] deals with monocyte (CD11b+Gr-1-Ly-6C+) chemotaxis to CCL2. Briefly: Flow cytometry-based chemotaxis assay. Type of data set: cell-based, mice. The conditions noted are these: 20 µM wortmannin pre-incubation. Here is the method: Bone marrow cells were mechanically flushed from the femurs and tibias of Frount-floxed mice and FROUNT-cKO mice. After incubation in ammonium chloride to lyse red blood cells, nucleated cells were incubated with the following antibodies: PE-conjugated Gr-1 (clone RB6-8C5, dilution 1:400, Cat 553128), Pacific blue-conjugated Ly-6C ([…], dilution 1:400, Cat 128014), and allophycocyanin-conjugated CD11b (clone M1/70, dilution 1:400, Cat 101212). Cells were washed and adjusted to 2 × 10^7 cells mL^−1 in chemotaxis buffer. Cells were pre-incubated with 20 μM wortmannin before the assay as necessary. The chemokines murine CCL2 (Peprotech) were added to the lower chamber and 25 μL of cell suspension was added to the upper chamber of a 5-μm pore-sized chemoTX plate. After incubation at 37 °C under 5% CO2 atmosphere for 90 min, migrated cells were collected and cell populations were determined by surface expression of stained antibody in each population using a Gallios flow cytometer (Beckman coulter). Data are expressed as a migration index (number of migrated cells in the presence of chemoattractant divided by the cell number in the absence of chemokine).
For orientation: Flow cytometry measures light scatter and fluorescence of single cells or particles in a stream.

In the case of `O=c1[nH]cc(F)c(=O)[nH]1` [5FU], the in vitro growth entry in the data set on LLC tumor cells [1] and with B16 tumor cells [2] was “affected” throughout. Moreover, the viability result in the data set with LLC tumor cells [3] and in the data set on B16 tumor cells [4] was “affected” throughout.

For `CCN(CC)C(=S)S` [DDC, sodium diethyldithiocarbamate], the “binding to FROUNT protein” value in [5] was “did not bind”. Besides, the “chemical shift perturbations in CRBD” value in [6] was “no significant perturbation”.

As for `NC(=O)Nc1sc(-c2ccc(F)cc2)cc1C(N)=O` [IKK-IV], the in vitro growth result with LLC tumor cells [1] and with B16 tumor cells [2] was “affected” throughout. Further, the viability entry in the data set on LLC tumor cells [3] and in the data set on B16 tumor cells [4] was “affected” throughout.

Regarding `N#CN` [cyanamide], the “inhibition of FROUNT-CCR2 interaction” value against FROUNT-CCR2 interaction is “did not block”. In the data set on THP-1 cells, the cellular chemotaxis entry is recorded as “did not block”. Besides, in the data set with ALDH, the ALDH inhibition activity entry is recorded as “more potently than DSF”.

`COC[C@H]1OC(=O)c2coc3c2[C@@]1(C)C1=C(C3=O)[C@@H]2CCC(=O)[C@@]2(C)C[C@H]1OC(C)=O` [wortmannin]: the CCL2-induced pseudopodia protrusion entry with peritoneal macrophages is on record as “inhibition”. Besides, in data set [7], the “migration in response to CCL2 stimulation” value is “inhibited”.
